In PubChem BioAssay AID588639 (Sanford-Burnham Center for Chemical Genomics, 2011) one finds IC50 data, which are given here for 81 molecules.

Each structure is given as a SMILES string. “And” between values parts separate entries of the source, which are not always exact repeats. Equal values may be shown once. The source made the active and inactive calls. How the calls were made is not given here. Some results are limits rather than exact numbers.

The target in this test is Alkaline phosphatase, tissue-nonspecific isozyme (Homo sapiens) (UniProt P05186). Nature of the test: inhibition of tissue-nonspecific alkaline phosphatase – biochemical, set 2, selectivity assay for mouse IAP inhibitor project, SAR follow-up (AID 588639). The note with it: purified human TNAP enzyme activity, counter-screen for mouse IAP. Background: The purpose of a counterscreen is to sort out artefacts and off-target activity.
Sequence of Alkaline phosphatase, tissue-nonspecific isozyme (Homo sapiens) (P05186 whole entry, looked up): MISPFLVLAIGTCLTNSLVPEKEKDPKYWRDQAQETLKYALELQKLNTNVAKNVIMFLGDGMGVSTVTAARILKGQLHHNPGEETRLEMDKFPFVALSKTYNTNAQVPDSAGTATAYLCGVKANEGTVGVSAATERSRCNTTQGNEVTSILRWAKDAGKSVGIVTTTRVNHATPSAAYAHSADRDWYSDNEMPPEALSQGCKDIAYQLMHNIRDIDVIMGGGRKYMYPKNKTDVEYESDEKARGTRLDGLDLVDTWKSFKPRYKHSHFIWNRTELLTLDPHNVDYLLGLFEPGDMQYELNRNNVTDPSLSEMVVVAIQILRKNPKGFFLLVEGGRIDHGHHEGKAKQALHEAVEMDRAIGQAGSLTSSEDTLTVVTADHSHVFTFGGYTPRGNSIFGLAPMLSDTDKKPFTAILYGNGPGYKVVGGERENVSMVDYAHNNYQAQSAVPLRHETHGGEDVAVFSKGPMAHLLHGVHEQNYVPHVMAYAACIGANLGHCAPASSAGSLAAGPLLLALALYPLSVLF
Regarding `Cc1ccc(C)c(NC(=O)CCNS(=O)(=O)c2ccc3c(c2)CCC3)c1`, the IC50 was > 100 µM (inactive).

Take `N#Cc1ccc(NC(=O)CNS(=O)(=O)c2ccc3[nH]c(=O)oc3c2)cc1`: the IC50 is > 100 µM (inactive) and 81.4 µM.

As to `COc1cc(/C=N/NC(=O)c2cc(O)c(O)c(O)c2)ccc1O`, the IC50 was > 100 µM (inactive).

With `Cc1ccc(CNC(=O)C2CCCN(S(=O)(=O)c3ccc4[nH]c(=O)oc4c3)C2)cc1` (stereo unspecified), the IC50 was > 100 µM (inactive).

With `COc1ccccc1CNC(=O)CCCNS(=O)(=O)c1ccc2[nH]c(=O)oc2c1`, the IC50 is > 100 µM (inactive).

In the case of `COc1cccc(C(=O)N/N=C/c2ccccc2F)c1`, the IC50 is > 100 µM (inactive).

In the case of `COc1cccc(CNC(=O)CCNS(=O)(=O)c2ccc3[nH]c(=O)oc3c2)c1`, the IC50 is > 100 µM (inactive).

On to `Cc1ccccc1CNC(=O)C1CCCN(S(=O)(=O)c2ccc3[nH]c(=O)oc3c2)C1` (stereo unspecified), for which the IC50 was > 100 µM (inactive).

For `O=C(N/N=C/c1ccccc1F)c1ccccc1OCc1ccccc1`, the IC50 was > 100 µM (inactive).

As to `Cc1ccc(NC(=O)CCNS(=O)(=O)c2ccc3c(c2)oc(=O)n3C)c(C)c1`, the IC50 was > 100 µM (inactive).

With `COc1ccc(CNC(=O)CCNS(=O)(=O)c2ccc3[nH]c(=O)oc3c2)c(OC)c1`, the IC50 was > 100 µM (inactive).

Take `CCOc1cc(C(=O)N/N=C/c2c(F)cccc2Cl)cc(OCC)c1OCC`: the IC50 was > 100 µM (inactive).

On to `COc1ccc(NC(=O)CCNS(=O)(=O)c2ccc3[nH]c(=O)oc3c2)cc1OC`, for which the half-maximal inhibitory concentration (IC50) was 74.4 µM and 65.5 µM.

For the molecule `O=C(N/N=C/c1cc(Br)ccc1F)c1ccc(O)cc1`, the IC50 was > 100 µM (inactive).

In the case of `O=C(N/N=C/c1ccc(Br)cc1F)c1cc(O)ccc1O`, the IC50 was > 100 µM (inactive).

Regarding `COc1cc(C(=O)N/N=C/c2c(F)cccc2Cl)cc(OC)c1OC`, the IC50 was > 100 µM (inactive).

Take `O=c1[nH]c2ccc(S(=O)(=O)Nc3ccc4c(c3)OCO4)cc2o1`: the IC50 was > 100 µM (inactive).

With `COc1ccc(/C=N\NC(=O)c2cc(O)c(O)c(O)c2)cc1CN1CCN(c2ccc(F)cc2)CC1`, the IC50 is > 100 µM (inactive).

Regarding `Cc1ccc(C)c(NC(=O)CCNS(=O)(=O)c2ccc3ccccc3c2)c1`, the IC50 is > 100 µM (inactive).

Take `Cc1ccc(C)c(NC(=O)CNS(=O)(=O)c2ccc3[nH]c(=O)oc3c2)c1`: the half-inhibitory concentration (IC50) was > 100 µM (inactive) and 34.8 µM.

Take `O=C(NCc1ccc2c(c1)OCO2)C1CCCN(S(=O)(=O)c2ccc3[nH]c(=O)oc3c2)C1` (stereo unspecified): the IC50 is > 100 µM (inactive).

As for `O=C(CCNS(=O)(=O)c1ccc2[nH]c(=O)oc2c1)Nc1ccc2c(c1)OCO2`, the IC50 was > 100 µM (inactive).

Regarding `O=C(N/N=C/c1ccccc1F)c1ccc(O)cc1O`, the IC50 is > 100 µM (inactive).

As for `Cc1ccc(C)c(NC(=O)C2CCCN(S(=O)(=O)c3ccc4c(c3)oc(=O)n4C)C2)c1` (stereo unspecified), the IC50 was > 100 µM (inactive).

On to `O=C(CCNS(=O)(=O)c1ccc2[nH]c(=O)oc2c1)NCc1cccc(F)c1`, for which the IC50 is > 100 µM (inactive).

In the case of `CC(C)c1ccc(/C=N/NC(=O)c2cc(O)c(O)c(O)c2)cc1`, the IC50 is > 100 µM (inactive).

For the molecule `COc1ccc(CCNC(=O)CCCNS(=O)(=O)c2ccc3[nH]c(=O)oc3c2)cc1`, the IC50 is > 100 µM (inactive).

On to `COc1ccc(/C=N/NC(=O)c2cc(O)c(O)c(O)c2)c(OC)c1`, for which the IC50 was > 100 µM (inactive).

With `COc1ccc(C(=O)N/N=C/c2c(F)cccc2Cl)cc1OC`, the IC50 is > 100 µM (inactive).

As to `O=C(N/N=C/c1ccccc1Cl)c1cc(O)c(O)c(O)c1`, the IC50 was > 100 µM (inactive).

For the molecule `O=C(N/N=C/c1ccc(Cl)c(Cl)c1)c1cc(O)c(O)c(O)c1`, the IC50 is > 100 µM (inactive).

With `CSc1cccc(NC(=O)C2CCCN(S(=O)(=O)c3ccc4c(c3)oc(=O)n4C)C2)c1` (stereo unspecified), the IC50 is > 100 µM (inactive).

For `Cc1ccc(C)c(NS(=O)(=O)c2ccc3[nH]c(=O)oc3c2)c1`, the IC50 is > 100 µM (inactive).

Turning to `COc1ccc(/C=N/NC(=O)c2cc(O)c(O)c(O)c2)cc1OC`, the IC50 is > 100 µM (inactive).

For the molecule `CCc1ccc(NC(=O)CCNS(=O)(=O)c2ccc3c(c2)oc(=O)n3C)cc1`, the IC50 was > 100 µM (inactive).

On to `COc1ccc(NS(=O)(=O)c2ccc3[nH]c(=O)oc3c2)cc1OC`, for which the IC50 is > 100 µM (inactive).

Consider `CCOc1cc(C(=O)N/N=C/c2ccccc2F)cc(OCC)c1OCC`, for which the IC50 is > 100 µM (inactive).

With `Cc1ccc(NC(=O)CCNS(=O)(=O)c2ccc3c(c2)oc(=O)n3C)cc1`, the IC50 was > 100 µM (inactive).

Consider `O=C(CCCNS(=O)(=O)c1ccc2[nH]c(=O)oc2c1)NCCc1ccc(O)cc1`, for which the IC50 is 74.6 µM.

As for `O=C(CCNS(=O)(=O)c1ccc2[nH]c(=O)oc2c1)NCc1ccc(F)cc1`, the IC50 was > 100 µM (inactive).

Consider `O=C(N/N=C/c1c(Cl)cccc1Cl)c1cc(O)c(O)c(O)c1`, for which the IC50 was > 100 µM (inactive).

As for `O=C(CCNS(=O)(=O)c1ccc2[nH]c(=O)oc2c1)NCc1ccc2c(c1)OCO2`, the IC50 was > 100 µM (inactive).

In the case of `O=C(N/N=C/c1ccc(F)c(Br)c1)c1cc(O)c(O)c(O)c1`, the IC50 was > 100 µM (inactive).

For the molecule `O=C(CCS(=O)(=O)Nc1ccc2[nH]c(=O)oc2c1)NCc1cccc(F)c1`, the IC50 is > 100 µM (inactive).

On to `O=C(NN=Cc1ccccc1F)c1ccc(O)cc1`, for which the IC50 is > 100 µM (inactive).

Take `CC(C)c1ccc(NC(=O)CCNS(=O)(=O)c2ccc3c(c2)oc(=O)n3C)cc1`: the IC50 was > 100 µM (inactive).

On to `Cc1ccc(C)c(NC(=O)CCNS(=O)(=O)c2ccc3[nH]c(=O)oc3c2)c1`, for which the IC50 was > 100 µM (inactive).

Take `O=C(CCCNS(=O)(=O)c1ccc2[nH]c(=O)oc2c1)NCc1ccccc1Cl`: the concentration for half-maximal inhibition (IC50) is 80.9 µM and > 100 µM (inactive).

Consider `N#Cc1ccc(NS(=O)(=O)c2ccc3[nH]c(=O)oc3c2)cc1`, for which the IC50 was > 100 µM (inactive).

Turning to `C/C(=N\NC(=O)c1cc(O)c(O)c(O)c1)c1ccc(O)cc1O`, the IC50 was > 100 µM (inactive).

As to `O=C(N/N=C/c1ccccc1F)c1ccc(O)cc1`, the IC50 was > 100 µM (inactive).

`COc1ccc(CNS(=O)(=O)c2ccc3[nH]c(=O)oc3c2)c(OC)c1`: the IC50 is > 100 µM (inactive).

Consider `N#Cc1cccc(NC(=O)CNS(=O)(=O)c2ccc3[nH]c(=O)oc3c2)c1`, for which the IC50 is > 100 µM (inactive).

Take `COc1ccc(OC)c(NC(=O)C2CCCN(S(=O)(=O)c3ccc4c(c3)oc(=O)n4C)C2)c1` (stereo unspecified): the IC50 is > 100 µM (inactive).

For the molecule `O=C(N/N=C/c1ccc(F)cc1F)c1ccc(O)cc1`, the IC50 was > 100 µM (inactive).

With `O=C(CCNS(=O)(=O)c1ccc2[nH]c(=O)oc2c1)NCc1cccc(Cl)c1`, the IC50 was > 100 µM (inactive).

With `COc1cccc(CNC(=O)CNS(=O)(=O)c2ccc3[nH]c(=O)oc3c2)c1`, the concentration for half-maximal inhibition (IC50) is > 100 µM (inactive) and 73.8 µM.

Regarding `O=C(CCNS(=O)(=O)c1ccc2[nH]c(=O)oc2c1)NCc1ccccc1F`, the IC50 is > 100 µM (inactive).

Regarding `COc1ccc(CNC(=O)CCNS(=O)(=O)c2ccc3c(c2)CCC3)c(OC)c1`, the IC50 was > 100 µM (inactive).

Turning to `O=C(CCNS(=O)(=O)c1ccc2[nH]c(=O)oc2c1)NCc1ccc(C(F)(F)F)cc1`, the IC50 is > 100 µM (inactive).

On to `O=C(CCNS(=O)(=O)c1ccc2c(c1)CCC2)NCCc1ccc2c(c1)OCO2`, for which the IC50 was > 100 µM (inactive).

For the molecule `N#Cc1cccc(CNC(=O)CCNS(=O)(=O)c2ccc3[nH]c(=O)oc3c2)c1`, the IC50 was > 100 µM (inactive).

For the molecule `Cc1ccc(NC(=O)CCNS(=O)(=O)c2ccc3c(c2)oc(=O)n3C)cc1C`, the IC50 is > 100 µM (inactive).

For the molecule `O=C(N/N=C/c1cccc(Cl)c1Cl)c1cc(O)c(O)c(O)c1`, the IC50 is > 100 µM (inactive).

With `COc1ccc(CNC(=O)CCNS(=O)(=O)c2ccc3ccccc3c2)c(OC)c1`, the IC50 was > 100 µM (inactive).

With `CC(C)Oc1ccc(CNC(=O)C2CCCN(S(=O)(=O)c3ccc4[nH]c(=O)oc4c3)C2)cc1` (stereo unspecified), the IC50 is > 100 µM (inactive).

In the case of `O=C(CCNS(=O)(=O)c1ccc2[nH]c(=O)oc2c1)NCc1cccc(C(F)(F)F)c1`, the IC50 was > 100 µM (inactive).

Turning to `COc1ccc(CNC(=O)CCNS(=O)(=O)c2ccc3[nH]c(=O)oc3c2)cc1`, the IC50 is > 100 µM (inactive).

`O=C(CCCNS(=O)(=O)c1ccc2[nH]c(=O)oc2c1)NCc1ccc2c(c1)OCO2`: the IC50 was > 100 µM (inactive).

As for `O=C(N/N=C/c1c(F)cccc1F)c1ccc(O)cc1`, the IC50 is > 100 µM (inactive).

For the molecule `CN(C)c1ccc(CNC(=O)C2CCCN(S(=O)(=O)c3ccc4[nH]c(=O)oc4c3)C2)cc1` (stereo unspecified), the IC50 was > 100 µM (inactive).

For `COc1ccc(NC(=O)CCNS(=O)(=O)c2ccc3ccccc3c2)cc1OC`, the IC50 was > 100 µM (inactive).

With `Cc1ccc(CNC(=O)CCNS(=O)(=O)c2ccc3[nH]c(=O)oc3c2)cc1`, the IC50 was > 100 µM (inactive).

Take `O=C(CCCNS(=O)(=O)c1ccc2[nH]c(=O)oc2c1)NCc1cccc(F)c1`: the IC50 was 51.4 µM and > 100 µM (inactive).

Regarding `COc1ccc(NC(=O)CCCNS(=O)(=O)c2ccc3[nH]c(=O)oc3c2)c(OC)c1`, the IC50 is > 100 µM (inactive).

Turning to `COc1ccc(CNC(=O)CCCNS(=O)(=O)c2ccc3[nH]c(=O)oc3c2)cc1OC`, the IC50 was > 100 µM (inactive).

Take `O=C(N/N=C/c1ccccc1C(F)(F)F)c1cc(O)c(O)c(O)c1`: the IC50 was > 100 µM (inactive).

As for `O=C(CCNS(=O)(=O)c1ccc2[nH]c(=O)oc2c1)NCCc1ccc2c(c1)OCO2`, the IC50 is > 100 µM (inactive).

Regarding `O=C(CCNS(=O)(=O)c1ccc2[nH]c(=O)oc2c1)NCCc1ccc(O)cc1`, the IC50 was > 100 µM (inactive).

Consider `COc1ccc(NC(=O)CCCNS(=O)(=O)c2ccc3[nH]c(=O)oc3c2)cc1OC`, for which the IC50 is > 100 µM (inactive).

Consider `O=C(CCS(=O)(=O)Nc1ccc2[nH]c(=O)oc2c1)NCc1cccc(Cl)c1`, for which the IC50 was > 100 µM (inactive).

The IC50 is the concentration at which inhibition is half-maximal.
